Assays:
[1] = target: MAP/microtubule affinity-regulating kinase 3 (Homo sapiens) (UniProt P27448); test: Inhibition of human recombinant MARK3 at 40 nM related to control ULK1
[2] = target: T1, MAP kinase-activated protein kinase 5 (Homo sapiens) (UniProt Q8IW41); test: Inhibition of human recombinant MAPKAPK5 at 40 nM related to control ULK1
T1 sequence (whole entry): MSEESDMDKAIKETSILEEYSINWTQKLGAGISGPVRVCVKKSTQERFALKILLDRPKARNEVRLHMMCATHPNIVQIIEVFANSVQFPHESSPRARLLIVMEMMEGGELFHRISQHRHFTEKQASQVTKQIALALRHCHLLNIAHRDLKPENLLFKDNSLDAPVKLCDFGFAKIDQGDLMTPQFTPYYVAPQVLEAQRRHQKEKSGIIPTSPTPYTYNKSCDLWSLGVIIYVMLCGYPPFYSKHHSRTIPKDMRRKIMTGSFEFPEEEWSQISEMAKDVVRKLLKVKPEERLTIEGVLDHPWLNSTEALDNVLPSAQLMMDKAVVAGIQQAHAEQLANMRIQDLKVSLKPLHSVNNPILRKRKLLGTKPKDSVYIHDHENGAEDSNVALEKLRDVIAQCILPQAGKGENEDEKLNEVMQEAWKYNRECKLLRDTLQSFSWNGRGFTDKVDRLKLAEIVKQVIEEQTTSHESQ

[3] = target: 3-phosphoinositide-dependent protein kinase 1 (Homo sapiens) (UniProt O15530); test: Inhibition of human recombinant PDK1 at 40 nM related to control ULK1
[4] = target: Calcium/calmodulin-dependent protein kinase type 1D (Homo sapiens) (UniProt Q8IU85); test: Inhibition of human recombinant CaMK1d at 40 nM in presence of ATP by radiometric assay relative to control
[5] = target: RAF proto-oncogene serine/threonine-protein kinase (Homo sapiens) (UniProt P04049); test: Inhibition of human recombinant RAF1 at 40 nM related to control ULK1
[6] = target: Transient receptor potential cation channel subfamily M member 7 (Homo sapiens) (UniProt Q96QT4); test: Inhibition of human recombinant ChaK1 at 15 nM in presence of ATP by radiometric assay relative to control
[7] = target: Transcription initiation factor TFIID subunit 1-like (Homo sapiens) (UniProt Q8IZX4); test: Inhibition of human recombinant TAF1L at 15 nM related to control ULK1
[8] = target: Leucine-rich repeat serine/threonine-protein kinase 2 (Homo sapiens) (UniProt Q5S007); test: Inhibition of human recombinant LRRK2 at 500 nM related to control ULK1
Homo sapiens = organism: Homo sapiens; test: Inhibition of human recombinant CK1d at 500 nM in presence of ATP by radiometric assay relative to control
[9] = target: T2, Serine/threonine-protein kinase Chk1 (Homo sapiens) (UniProt O14757); test: Inhibition of human recombinant CHK1 at 500 nM in presence of ATP by radiometric assay relative to control
T2 sequence (whole entry): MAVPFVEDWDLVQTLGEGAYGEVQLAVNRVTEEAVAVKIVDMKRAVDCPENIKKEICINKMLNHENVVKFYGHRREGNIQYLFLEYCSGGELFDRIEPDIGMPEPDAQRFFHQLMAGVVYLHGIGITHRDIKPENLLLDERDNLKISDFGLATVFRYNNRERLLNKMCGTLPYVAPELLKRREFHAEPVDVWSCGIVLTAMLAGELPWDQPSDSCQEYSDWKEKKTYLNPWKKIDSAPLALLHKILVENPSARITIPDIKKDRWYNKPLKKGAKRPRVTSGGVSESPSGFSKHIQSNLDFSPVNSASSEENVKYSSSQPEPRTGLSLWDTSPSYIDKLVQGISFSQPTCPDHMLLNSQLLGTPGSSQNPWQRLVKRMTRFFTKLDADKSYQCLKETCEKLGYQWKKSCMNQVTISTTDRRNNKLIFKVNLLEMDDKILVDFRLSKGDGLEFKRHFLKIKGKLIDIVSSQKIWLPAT

[10] = target: 3-phosphoinositide-dependent protein kinase 1 (Homo sapiens) (UniProt O15530); test: Inhibition of human recombinant PDK1 at 500 nM in presence of ATP by radiometric assay relative to control
[11] = target: T3, Tribbles homolog 2 (Homo sapiens) (UniProt Q92519); test: Inhibition of human recombinant Trb2 at 500 nM in presence of ATP by radiometric assay relative to control
T3 sequence (whole entry): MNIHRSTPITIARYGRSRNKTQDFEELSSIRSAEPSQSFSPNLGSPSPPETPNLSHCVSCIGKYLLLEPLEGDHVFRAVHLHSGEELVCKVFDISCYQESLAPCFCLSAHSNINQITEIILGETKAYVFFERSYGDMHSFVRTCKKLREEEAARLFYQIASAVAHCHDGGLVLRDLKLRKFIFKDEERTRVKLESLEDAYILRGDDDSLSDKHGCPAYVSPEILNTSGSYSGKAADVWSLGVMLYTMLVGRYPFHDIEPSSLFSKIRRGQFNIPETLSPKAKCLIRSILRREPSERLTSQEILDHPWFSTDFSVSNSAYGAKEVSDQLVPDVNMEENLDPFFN

[12] = target: Tyrosine-protein kinase CSK (Homo sapiens) (UniProt P41240); test: Inhibition of human recombinant CSK at 500 nM in presence of ATP by radiometric assay relative to control
[13] = target: SRSF protein kinase 1 (Homo sapiens) (UniProt Q96SB4); test: Inhibition of human recombinant SRPK1 at 500 nM related to control ULK1
[14] = target: Cyclin-dependent kinase 2 (Homo sapiens) (UniProt P24941); test: Inhibition of human recombinant CDK2 at 500 nM related to control ULK1
[15] = target: Calcium/calmodulin-dependent protein kinase type 1 (Homo sapiens) (UniProt Q14012); test: Inhibition of human recombinant CaMK1a at 500 nM related to control ULK1
[16] = target: Serine/threonine-protein kinase pim-3 (Homo sapiens) (UniProt Q86V86); test: Inhibition of human recombinant PIM3 at 500 nM in presence of ATP by radiometric assay relative to control

Sequence of 3-phosphoinositide-dependent protein kinase 1 (Homo sapiens) (O15530 whole entry, looked up): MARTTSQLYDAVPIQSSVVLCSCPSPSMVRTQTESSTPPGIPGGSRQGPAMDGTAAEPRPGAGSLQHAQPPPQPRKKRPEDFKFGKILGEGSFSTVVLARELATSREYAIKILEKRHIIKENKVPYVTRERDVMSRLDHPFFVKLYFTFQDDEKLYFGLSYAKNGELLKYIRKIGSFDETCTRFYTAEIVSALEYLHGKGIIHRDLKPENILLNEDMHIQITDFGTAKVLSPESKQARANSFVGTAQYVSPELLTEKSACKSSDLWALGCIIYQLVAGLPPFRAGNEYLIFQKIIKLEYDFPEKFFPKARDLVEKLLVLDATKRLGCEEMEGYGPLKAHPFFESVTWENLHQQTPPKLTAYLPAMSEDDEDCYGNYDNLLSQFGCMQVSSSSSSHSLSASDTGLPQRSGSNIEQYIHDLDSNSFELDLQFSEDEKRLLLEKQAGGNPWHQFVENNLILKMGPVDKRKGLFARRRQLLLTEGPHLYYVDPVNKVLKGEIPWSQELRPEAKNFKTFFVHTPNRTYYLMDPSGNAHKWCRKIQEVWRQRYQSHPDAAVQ
Sequence of Calcium/calmodulin-dependent protein kinase type 1D (Homo sapiens) (Q8IU85 whole entry, looked up): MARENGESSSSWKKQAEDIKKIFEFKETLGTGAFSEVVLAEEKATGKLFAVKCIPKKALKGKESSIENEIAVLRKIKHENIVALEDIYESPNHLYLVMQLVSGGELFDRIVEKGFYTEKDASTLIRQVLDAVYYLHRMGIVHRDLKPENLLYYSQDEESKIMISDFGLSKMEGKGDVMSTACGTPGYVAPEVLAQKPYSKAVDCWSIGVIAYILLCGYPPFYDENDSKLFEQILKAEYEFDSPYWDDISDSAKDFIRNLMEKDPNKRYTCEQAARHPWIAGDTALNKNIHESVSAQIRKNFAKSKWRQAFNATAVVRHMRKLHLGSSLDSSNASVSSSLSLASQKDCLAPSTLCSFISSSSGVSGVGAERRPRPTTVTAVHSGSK
Sequence of Transient receptor potential cation channel subfamily M member 7 (Homo sapiens) (Q96QT4 whole entry): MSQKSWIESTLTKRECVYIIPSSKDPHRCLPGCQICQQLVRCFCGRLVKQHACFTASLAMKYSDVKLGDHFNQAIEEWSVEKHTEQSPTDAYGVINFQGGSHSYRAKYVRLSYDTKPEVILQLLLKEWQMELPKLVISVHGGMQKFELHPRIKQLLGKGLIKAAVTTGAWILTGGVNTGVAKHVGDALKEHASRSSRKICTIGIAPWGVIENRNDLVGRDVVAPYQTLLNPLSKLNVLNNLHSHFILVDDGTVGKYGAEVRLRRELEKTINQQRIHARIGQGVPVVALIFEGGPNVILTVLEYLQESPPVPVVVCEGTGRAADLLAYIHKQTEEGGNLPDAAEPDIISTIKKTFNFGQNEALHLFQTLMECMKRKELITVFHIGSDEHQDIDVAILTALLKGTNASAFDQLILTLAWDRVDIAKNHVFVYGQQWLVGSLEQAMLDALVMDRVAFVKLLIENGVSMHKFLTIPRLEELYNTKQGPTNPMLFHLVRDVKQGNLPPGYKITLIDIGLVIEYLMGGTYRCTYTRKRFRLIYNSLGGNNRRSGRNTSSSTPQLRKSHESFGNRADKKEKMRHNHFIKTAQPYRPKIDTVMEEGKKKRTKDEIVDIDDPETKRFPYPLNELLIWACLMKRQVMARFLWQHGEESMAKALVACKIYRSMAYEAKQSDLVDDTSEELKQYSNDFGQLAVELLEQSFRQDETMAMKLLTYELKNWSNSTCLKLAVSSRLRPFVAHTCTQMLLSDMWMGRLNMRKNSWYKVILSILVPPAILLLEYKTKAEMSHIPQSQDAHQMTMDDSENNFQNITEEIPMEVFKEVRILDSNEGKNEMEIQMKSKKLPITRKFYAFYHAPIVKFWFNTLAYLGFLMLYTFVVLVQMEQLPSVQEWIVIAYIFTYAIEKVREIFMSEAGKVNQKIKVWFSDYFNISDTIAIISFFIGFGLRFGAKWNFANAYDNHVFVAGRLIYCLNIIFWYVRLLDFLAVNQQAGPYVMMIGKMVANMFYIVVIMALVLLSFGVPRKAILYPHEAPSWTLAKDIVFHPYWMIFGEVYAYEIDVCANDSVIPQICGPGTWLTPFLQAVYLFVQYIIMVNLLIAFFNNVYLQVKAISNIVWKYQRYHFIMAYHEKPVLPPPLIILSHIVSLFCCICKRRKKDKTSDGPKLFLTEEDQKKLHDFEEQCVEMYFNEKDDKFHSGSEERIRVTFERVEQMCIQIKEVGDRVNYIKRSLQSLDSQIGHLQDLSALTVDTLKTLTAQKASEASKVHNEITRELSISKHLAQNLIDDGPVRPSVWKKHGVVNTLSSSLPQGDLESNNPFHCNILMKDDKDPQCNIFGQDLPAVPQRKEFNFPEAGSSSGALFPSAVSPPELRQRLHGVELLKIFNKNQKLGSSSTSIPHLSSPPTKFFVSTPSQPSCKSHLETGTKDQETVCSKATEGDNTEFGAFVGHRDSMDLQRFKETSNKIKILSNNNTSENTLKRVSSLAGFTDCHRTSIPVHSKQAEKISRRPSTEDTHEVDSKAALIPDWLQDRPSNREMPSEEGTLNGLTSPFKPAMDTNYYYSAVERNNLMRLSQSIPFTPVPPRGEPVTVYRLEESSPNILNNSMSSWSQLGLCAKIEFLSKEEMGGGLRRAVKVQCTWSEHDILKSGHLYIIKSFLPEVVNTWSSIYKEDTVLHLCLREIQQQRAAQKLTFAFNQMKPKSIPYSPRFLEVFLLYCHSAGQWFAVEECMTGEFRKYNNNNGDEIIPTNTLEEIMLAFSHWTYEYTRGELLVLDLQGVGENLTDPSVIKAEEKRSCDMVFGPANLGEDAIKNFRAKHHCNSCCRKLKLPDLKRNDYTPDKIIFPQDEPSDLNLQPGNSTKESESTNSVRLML
Sequence of SRSF protein kinase 1 (Homo sapiens) (Q96SB4 whole entry): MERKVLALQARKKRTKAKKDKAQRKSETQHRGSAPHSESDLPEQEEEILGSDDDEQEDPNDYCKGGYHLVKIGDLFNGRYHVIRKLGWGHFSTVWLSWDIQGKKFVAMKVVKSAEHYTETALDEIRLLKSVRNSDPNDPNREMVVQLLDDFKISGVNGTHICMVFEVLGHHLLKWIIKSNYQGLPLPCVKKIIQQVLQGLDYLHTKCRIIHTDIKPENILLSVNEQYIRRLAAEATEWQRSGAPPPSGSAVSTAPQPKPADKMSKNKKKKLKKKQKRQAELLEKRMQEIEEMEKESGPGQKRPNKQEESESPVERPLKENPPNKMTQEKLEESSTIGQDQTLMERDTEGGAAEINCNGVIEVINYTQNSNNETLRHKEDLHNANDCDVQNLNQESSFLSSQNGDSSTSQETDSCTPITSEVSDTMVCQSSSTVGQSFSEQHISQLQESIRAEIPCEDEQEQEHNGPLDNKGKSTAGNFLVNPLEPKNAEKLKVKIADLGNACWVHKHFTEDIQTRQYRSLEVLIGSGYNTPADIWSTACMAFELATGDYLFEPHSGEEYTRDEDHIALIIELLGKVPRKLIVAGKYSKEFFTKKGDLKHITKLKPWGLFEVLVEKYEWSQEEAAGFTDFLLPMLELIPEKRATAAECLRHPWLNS
Sequence of MAP/microtubule affinity-regulating kinase 3 (Homo sapiens) (P27448 whole entry, looked up): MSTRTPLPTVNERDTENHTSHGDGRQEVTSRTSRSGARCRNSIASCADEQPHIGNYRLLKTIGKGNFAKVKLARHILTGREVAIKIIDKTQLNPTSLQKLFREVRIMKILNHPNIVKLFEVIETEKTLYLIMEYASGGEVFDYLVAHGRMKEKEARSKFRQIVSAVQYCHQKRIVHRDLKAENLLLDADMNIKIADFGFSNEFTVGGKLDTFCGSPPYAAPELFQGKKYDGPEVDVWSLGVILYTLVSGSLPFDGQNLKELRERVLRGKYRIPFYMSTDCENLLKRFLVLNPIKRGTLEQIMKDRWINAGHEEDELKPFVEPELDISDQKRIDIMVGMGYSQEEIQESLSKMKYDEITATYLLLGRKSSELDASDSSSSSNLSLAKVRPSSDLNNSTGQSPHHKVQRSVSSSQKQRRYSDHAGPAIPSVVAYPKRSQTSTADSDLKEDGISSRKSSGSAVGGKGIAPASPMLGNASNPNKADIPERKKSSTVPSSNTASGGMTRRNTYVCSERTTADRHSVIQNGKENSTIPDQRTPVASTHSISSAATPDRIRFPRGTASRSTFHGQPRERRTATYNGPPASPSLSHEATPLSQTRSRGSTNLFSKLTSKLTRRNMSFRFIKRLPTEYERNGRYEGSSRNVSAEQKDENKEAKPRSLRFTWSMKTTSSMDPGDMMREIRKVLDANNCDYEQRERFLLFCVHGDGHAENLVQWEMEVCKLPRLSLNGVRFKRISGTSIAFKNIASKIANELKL
Sequence of Calcium/calmodulin-dependent protein kinase type 1 (Homo sapiens) (Q14012 whole entry, looked up): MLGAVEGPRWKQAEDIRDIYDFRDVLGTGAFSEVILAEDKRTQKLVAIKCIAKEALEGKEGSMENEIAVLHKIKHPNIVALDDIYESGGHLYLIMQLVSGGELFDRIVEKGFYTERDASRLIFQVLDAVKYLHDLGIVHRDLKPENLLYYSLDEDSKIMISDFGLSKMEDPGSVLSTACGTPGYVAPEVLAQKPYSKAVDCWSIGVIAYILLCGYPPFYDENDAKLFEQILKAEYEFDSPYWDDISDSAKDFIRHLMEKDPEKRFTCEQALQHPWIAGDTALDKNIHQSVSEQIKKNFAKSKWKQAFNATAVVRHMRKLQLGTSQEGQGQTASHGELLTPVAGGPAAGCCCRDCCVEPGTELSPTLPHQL

Work on `O=C(N[C@@H](C1CC1)C(F)(F)F)c1cc(-c2cnn3cc(-c4ccc(F)cc4)cnc23)cs1` yielded a fold change (FC) [1] of 0.21, a fold change (FC) [2] of 0 and a fold change (FC) [3] of 0. The inhibition [4] was 0% and the fold change (FC) [5] was 0.01.

For `CC(C)[C@H](NC(=O)c1cc(-c2cnn3cc(-c4ccc(OCCN5CCCCC5)cc4)cnc23)cs1)C(F)(F)F`, the inhibition [6] was 12% and the fold change (FC) [7] was 0.49.

`CNC(=O)c1ccccc1Oc1nc(Nc2cc(OC)c(OC)c(OC)c2)ncc1Br` gave a fold change (FC) [8] of 0.47, an inhibition (Homo sapiens) of 10% and an inhibition [9] of 4%. The inhibition [10] was 4%, the inhibition [11] was 0% and the inhibition [12] was 2%. It also gave a fold change (FC) [13] of 0.14, a fold change (FC) [14] of 0.05 and a fold change (FC) [15] of 0. For the same compound, the inhibition [16] was 0%.
